In patent publication US11472816B2, “Mcl-1 inhibitors and methods of use thereof” (AstraZeneca AB, priority 2016, dated 2022):

How the values were obtained:
MV-4-11 tumor = experiment: In vivo efficacy in MV-4-11 human acute myeloid leukemia subcutaneous tumor model; design: species or system C.B-17 SCID female mice
Description: Method: Example 2 was formulated in 30% 2-Hydroxypropyl-beta-cyclodextrin (HPBCD), pH 9 and dosed as a single intravenous (iv) administration in a volume of 5 ml/kg. 10^6 MV-4-11 tumor cells were injected subcutaneously in the right flank of C.B-17 SCID female mice in a volume of 0.1 mL. Tumor volumes (measured by caliper), animal body weight, and tumor conditions were recorded twice weekly for the duration of the study. Tumor volumes (measured by caliper) were calculated using the formula: length (mm)×width (mm)^2[…]. For efficacy studies, mice were randomized based on tumor volumes and growth inhibition was assessed by comparison of the differences in tumor volume between control and treated groups. Dosing began when mean tumor size reached approximately 230 mm^3.

NCI-H929 tumor = experiment: In vivo combination efficacy in NCI-H929 human multiple myeloma subcutaneous tumor model; design: species or system C.B-17 SCID female mice; conditions: either agent alone (Example 2 30 mg/kg every other week; bortezomib 1 mg/kg weekly), NCI-H929 tumor bearing mice
Description: Method: Example 2 was formulated in 30% 2-Hydroxypropyl-beta-cyclodextrin (HPBCD), pH 9 and dosed as intravenously (iv) in a volume of 5 ml/kg. 5×10^6 MOLP-8 tumor cells or 10^7 NCI-H929 tumor cells were injected subcutaneously in the right flank of C.B-17 SCID female mice in a volume of 0.1 mL. Tumor volumes (measured by caliper) were calculated using the formula: length (mm)×width (mm)^2[…]. For efficacy studies, mice were randomized based on tumor volumes and growth inhibition was assessed by comparison of the differences in tumor volume between control and treated groups. Dosing began when mean tumor size reached approximately 160 mm^3 for MOLP-8 and approximately 230 mm^3 for NCI-H929.

SMILES | mice remaining tumor free (MV-4-11 tumor; once weekly iv 30 mg/kg, 16 days after initiation of therapy) | mice remaining tumor free (MV-4-11 tumor; single iv dose of 100 mg/kg, 16 days after therapy) | anti-tumor activity, agent alone (NCI-H929 tumor)
Cc1c2c(nn1C)CSCc1cc(n(C)n1)CSc1cc(c3ccccc3c1)OCCCc1c(C(=O)O)n(C)c3c-2c(Cl)ccc13 (atropisomer, axis not shown; (Ra)) [Example 2, (Ra)-(+)-17-chloro-5,13,14,22-tetramethyl-28-oxa-2,9-dithia-5,6,12,13,22-pentaazaheptacyclo[27.7.1.1^4,7.0^11,15.0^16,21.0^20,24.0^30,35]octatriaconta-1(37),4(38),6,11,14,16,18,20,23,29,31,33,35-tridecaene-23-carboxylic acid] | 1 of 6 | 4 of the 6 | no significant anti-tumor activity
CC(C)C[C@H](NC(=O)[C@H](Cc1ccccc1)NC(=O)c1cnccn1)B(O)O [bortezomib, reference compound] | – | – | no significant anti-tumor activity
